Reference: patent publication US7875617B2, “3,4-dihydro-2-naphthamide derivatives as selective dopamine D3 ligands” (Institut National de la Sante et de la Recherche Medicale …, priority 2005, dated 2011)
pEC50, pKi: −log10 of the molar value.

Experiments:
[1] = target: T1, human recombinant dopamine D3 receptor (Homo sapiens, UniProt P35462); assay: inhibition of [125I]iodosulpride binding, D3 receptor; details: for selectivity ratio, D2 receptor affinity relative to D3 receptor affinity: D2 vs D3, times lower affinity at D2; for pKi: [125I]iodosulpride binding, cells expressing human recombinant receptor, read-out: affinity for the D3 receptor
T1 construct: expressed in transfected cells
Experimental: (§1) The activity of the derivatives of formula (I) according to the invention was evaluated with respect to cells expressing human recombinant dopamine receptors. The inhibition constants (Ki) were measured by inhibition of [^125I]iodosulpride binding as described by Sokoloff et al. (1992). The degree of stimulation of the D3 receptor was determined by measuring the incorporation of [^3H]-thymidine in NG 108-15 cells expressing the D3 receptor (Pilon et al., 1994; Sautel et al., 1995).

human D3 receptor = target: T2, human D3 receptor (Homo sapiens, UniProt P35462); assay: mitogenesis assay, [3H]thymidine incorporation in NG 108-15 cells expressing the D3 receptor; assay type: cell-based; details: for pEC50: read-out: 50% effective concentration (EC50), mitogenesis; for intrinsic activity (efficacy): relative to quinpirole (full agonist, efficacy 1), nafadotride is full antagonist (efficacy 0)
T2 construct: expressed in transfected cells; host or cells: NG 108-15 cells
Experimental: The activity of the derivatives of formula (I) according to the invention was evaluated with respect to cells expressing human recombinant dopamine receptors.
I-28 activity in vitro towards recombinant D3 receptor has been determined using a validated mitogenesis assay which was performed as follows:
After a 24 h-culture, cells were washed twice with culture medium without fetal calf serum and incubated for 16 hours with drugs in four replicates. Then [^3H]thymidine (1 μCi per well) was added for 2 hours and cells were harvested by vacuum filtration through Whatman GF/C fiber filters using an automated cell harvester (Brandel-Beckman) and rinsed 10 times with 200 μl 50 mM potassium phosphate buffer containing 150 mM NaCl. Radioactivity retained on filters was counted by liquid scintagraphy.

[2] = test system: spontaneous locomotor activity of mice; assay: spontaneous locomotor activity during habituation in mice; assay type: in vivo
Experimental: (§2) Activity of I-28 in vivo was assessed by using a simple test recently developed (Leriche et al. 2003 and international PCT application WO 2004/084952).
(§3) Male Swiss mice (Charles River, France), weighing 26-28 g, were housed six per cage (25×15×13 cm), on a 12 h/12 h light/dark cycle (lights on at 07:00 a.m.), with food and water freely available. Room temperature ranged from 20° C. to 22° C. and humidity varied between 55% and 65%.
(§4) Dizocilpine (MK-801) [(+)-5-methyl-10,11-dihydro-5H-dibenzo[a,d]cyclohepten-5,10-imine maleate] (Sigma) was dissolved in saline (0.9% NaCl). I-28 was dissolved in a few drops of HCl and distilled water, and the pH of the solution was adjusted to pH 5 using NaOH. The doses of I-28 are expressed as the weight of the base. The compounds were injected i.p. in a volume of 5 ml·kg^−1.
All experiments were conducted between 2.00 p.m. and 6.00 p.m., and the animals were kept in the test room at least 1 hour before recording their activity. The locomotor activity was measured in an actimeter that was composed of eight individual activity cages (30×15×18 cm, with sawdust on the floor) transected by infrared beams (Imetronic, Pessac, France). […]
Mice were injected with either Vehicle (distilled water pH 5) or I-28 (0.1, 0.3, 1 or 3 mg·kg^−1), and their horizontal locomotor activity was measured for 30 minutes (spontaneous locomotor activity). […]

[3] = test system: MK-801-induced hyperactivity in mice; assay: MK-801-induced hyperactivity in mice; assay type: in vivo
Experimental: as §2, §3, §4
All experiments were conducted between 2.00 p.m. and 6.00 p.m., and the animals were kept in the test room at least 1 hour before recording their activity. The locomotor activity was measured in an actimeter that was composed of eight individual activity cages (30×15×18 cm, with sawdust on the floor) transected by infrared beams (Imetronic, Pessac, France). Counts for forward horizontal activity were incremented each time the animal moved from one-half part of the cage to the other, corresponding to disruption of two crossed parallel beams distant of 14 cm. In time-course studies, counts were summed every 5 minute.
Mice were injected with either Vehicle (distilled water pH 5) or I-28 (0.1, 0.3, 1 or 3 mg·kg^−1), and their horizontal locomotor activity was measured for 30 minutes (spontaneous locomotor activity). They were subsequently treated with saline or MK-801 (0.12 mg·kg^−1) and the activity was measured for 1 hour (MK-801-induced locomotor activity).

[4] = target: T3, human recombinant dopamine D2 receptor (Homo sapiens, UniProt P14416); assay: inhibition of [125I]iodosulpride binding, D2 receptor; details: cells expressing human recombinant receptor, read-out: affinity for the D2 receptor
T3 construct: expressed in transfected cells
Experimental: as §1

[5] = NG 108-15 cells transfected with the human D3 receptor

T1 sequence (P35462 whole entry): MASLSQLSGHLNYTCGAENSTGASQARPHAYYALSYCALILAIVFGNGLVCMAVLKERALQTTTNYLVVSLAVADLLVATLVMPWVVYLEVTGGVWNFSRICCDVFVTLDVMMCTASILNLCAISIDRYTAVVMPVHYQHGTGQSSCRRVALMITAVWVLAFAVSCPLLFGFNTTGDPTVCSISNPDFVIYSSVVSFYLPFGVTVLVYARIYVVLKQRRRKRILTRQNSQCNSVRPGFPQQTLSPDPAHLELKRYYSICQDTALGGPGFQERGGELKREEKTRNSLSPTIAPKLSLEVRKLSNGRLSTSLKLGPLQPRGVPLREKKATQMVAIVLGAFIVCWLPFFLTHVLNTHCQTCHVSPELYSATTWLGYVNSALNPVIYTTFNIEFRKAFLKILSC
T2 sequence (P35462 whole entry): as above
T3 sequence (P14416 whole entry): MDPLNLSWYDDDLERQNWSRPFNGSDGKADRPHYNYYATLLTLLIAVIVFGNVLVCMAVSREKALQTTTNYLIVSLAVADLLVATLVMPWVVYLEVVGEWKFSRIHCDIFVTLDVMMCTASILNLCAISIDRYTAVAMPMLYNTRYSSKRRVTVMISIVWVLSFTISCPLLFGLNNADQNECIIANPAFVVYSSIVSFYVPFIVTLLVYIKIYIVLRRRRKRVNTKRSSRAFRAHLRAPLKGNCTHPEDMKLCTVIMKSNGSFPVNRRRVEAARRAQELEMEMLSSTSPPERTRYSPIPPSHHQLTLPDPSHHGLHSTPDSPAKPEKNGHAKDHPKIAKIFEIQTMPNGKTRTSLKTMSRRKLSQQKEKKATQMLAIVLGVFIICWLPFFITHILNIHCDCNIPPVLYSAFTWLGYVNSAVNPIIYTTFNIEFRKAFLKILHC

| selectivity ratio, D2 receptor affinity relative to D3 receptor affinity [1] | pKi [1] | pEC50 (human D3 receptor; [5]) | intrinsic activity (efficacy) (human D3 receptor) | blood-brain barrier passage ([3]; inferred from activity after systemic administration in mice) | pKi [4] | maximal response, % of that produced by quinpirole (human D3 receptor; NG 108-15 cells transfected with the human D3 receptor, mean ±SEM) [%] | SMILES | change of spontaneous activity ([2]; 3.0 mg·kg−1 i.p., P=0.042) [%] | effect on spontaneous locomotor activity during habituation ([2]; i.p., doses below 3.0 mg·kg−1, 30 minutes) | inhibition of MK-801-induced hyperactivity ([3]; mice, 0.3 mg·kg−1 i.p., P=0.031) [%] | inhibition of MK-801-induced hyperactivity ([3]; mice, 1.0 mg·kg−1 i.p., P=0.0073) [%] | inhibition of MK-801-induced hyperactivity ([3]; mice, 3.0 mg·kg−1 i.p., P=0.0012) [%] | ED50, inhibition of MK-801-induced hyperactivity ([3]; mice, i.p., MK-801 0.12 mg·kg−1) |
| --- | --- | --- | --- | --- | --- | --- | --- | --- | --- | --- | --- | --- | --- |
| 160 | 9.15 | 8.66 | 0.85 |  |  |  | O=C(NCCCCN1CCN(c2cccc(O)c2)CC1)C1=Cc2ccccc2CC1 [Example 4, N-[4-[(3-hydroxyphenyl)piperazine-1-yl]butyl]-3,4-dihydronaphtalene-2-carboxamide] |  |  |  |  |  |  |
|  | 8.68 | 8.20 | 0.37 | crosses the blood-brain barrier | 6.50 | 37±2 | N#Cc1cccc(N2CCN(CCCCNC(=O)C3=Cc4ccccc4CC3)CC2)c1 [I-28] | −25 | no effect | 36.7 | 46.6 | 57.3 | about 0.3 mg·kg−1 |
|  |  |  | 0 |  |  |  | CCCCN1CCCC1CNC(=O)c1cc(C#N)c2ccccc2c1OC (centres unmarked) [nafadotride, reference compound] |  |  |  |  |  |  |
| 59 | 9.13 |  |  |  | 7.36 |  | O=C(NCCCCN1CCN(c2cccc(O)c2)CC1)c1ccc2ccccc2c1 [reference compound] |  |  |  |  |  |  |
